Test results published in PMC8279406 (Journal of Medicinal Chemistry, 2021).

Legend:
human αvβ8 integrin = target: T1, human αvβ8 integrin (Homo sapiens, UniProt P06756+P26012); assay: LAP(TGF-β1)-αvβ8 competitive solid-phase ELISA binding assay; conditions: competitive ELISA, immobilized LAP, soluble integrin
T1 construct: purchased R&D Systems (Biotechne brand) 4135-AV
Experimental: (§1) The affinity and selectivity of the integrin peptide ligands were ascertained according to a modified method previously reported by some of us.[33],[47] The binding was determined in a competitive solid-phase binding assay using extracellular matrix proteins, soluble integrins, and pertinent integrin-specific antibodies in an enzyme-linked immunosorbent assay (ELISA).
The experimental procedure is as described for the αvβ6 assay, except for the following modifications. The plates were coated, washed, and blocked as described above. Soluble integrin αvβ8 was mixed with an equal volume of serially diluted inhibitors resulting in a final integrin concentration of 0.25 μg/mL and 0.0032–10 μM for the inhibitors. The primary and secondary antibodies are the same as in the integrin αvβ6 assay. Visualization and analysis were performed as described above. Each plate contained a linear peptide ([…]) as the internal standard.[3]

human αvβ6 integrin = target: T2, human αvβ6 integrin (Homo sapiens, UniProt P06756+P18564); assay: LAP(TGF-β1)-αvβ6 competitive solid-phase ELISA binding assay; conditions: immobilized LAP, soluble integrin
T2 construct: using immobilized ECM protein and soluble integrin; purchased R&D Systems (Biotechne brand) 3817-AV
Experimental: as §1
A flat-bottom 96-well ELISA plate was coated overnight at 4 °C with 100 μL/well of 0.4 μg/mL LAP previously diluted in carbonate buffer (15 mM Na2CO3, 35 mM NaHCO3, pH 9.6). Afterward, each well was then washed three times with 200 μL of PBS-T buffer (137 mM NaCl, 2.7 mM KCl, 10 mM Na2HPO4, 2 mM KH2PO4, 0.01% Tween 20, pH 7.4) and blocked for 1 h at room temperature with 150 μL/well TSB buffer (20 mM Tris–HCl, 150 mM NaCl, 1 mM CaCl2, 1 mM MgCl2, 1 mM MnCl2, pH 7.5, 1% BSA). Then, each well was washed three times with 200 μL of PBS-T.
Equal volumes (50 μL) of the internal standard (or test compounds) were mixed with 0.5 μg/mL human integrin αvβ6 (50 μL) giving a final dilution series in TSB buffer of 0.00064–10 μM for the inhibitors and 0.25 μg/mL for integrin αvβ6. These solutions (100 μL/well) were added to the flat-bottom ELISA plate and incubated for 1 h at room temperature. The solutions were discarded from the wells, and the plate was washed three times with PBS-T buffer (3 × 200 μL). […] The solutions were discarded from the wells, and the plate was washed three times with PBS-T (3 × 200 μL). The binding assay was developed by adding 50 μL/well of the 3,3′,5,5′-tetramethylbenzidine (TMB) liquid substrate system and incubating for 1 min at room temperature. The reaction was stopped by adding 50 μL/well of 3 M H2SO4. The peroxidase product formation was detected by measuring the absorbance at […] using a plate reader (Tecan SpectraFLUOR plus, Männedorf, Switzerland). Each compound concentration was tested in duplicate, and the resulting inhibition curves were analyzed using OriginPro 7.5G software; the inflection point describes the IC50 value. Each plate contained a linear peptide ([…]) as the internal standard.[63]

[1] = system: recombinant K26GFP HSV-1 strain; assay: Infection neutralization assay, transfected J cells, K26GFP HSV-1, EGFP expression; assay type: cell-based; conditions: all of the examined J cell samples, 700 μM
Text: To this aim, we selected the J cells, which are negative for gD receptors and therefore cannot be infected by HSV-1 unless gD cognate receptors (i.e., nectin1) are transgenically expressed. […] In particular, J cells were transfected with low amounts of nectin1 plasmid, plus either αvβ6 or αvβ8 integrin plasmid or both, and then infected with the recombinant K26GFP HSV-1 strain. Indeed, the capsid protein ICP26 of this strain is fused to the green fluorescent protein (GFP),[60] whose cellular expression can be used to measure the viral infection. Thus, the K26GFP entry in J cells after compound treatment was evaluated using fluorescent microscopy (Figure 4A–T), and the enhanced green fluorescent protein (EGFP) expression was quantified using flow cytometry as the mean fluorescence intensity (MFI) of gated cells (Figure 4U). […] In parallel, we also evaluated the HSV infection in J cells expressing nectin1 plus either αvβ6 or αvβ8 alone.
J cells were transfected with a low amount (75 ng of DNA/24 well) of nectin1 alone (A–E), or with the same amount of nectin1 plus αvβ6 integrin (300 ng DNA/24 well) (F–J), or plus αvβ8 integrin (300 ng DNA/24 well) (K–O), or plus both the integrin receptors (P–T). […] The cells were infected with K26GFP. The nonpenetrated virus was inactivated by an acid wash. Infectivity was measured at 16 h after infection as EGFP expression. (A)–(T) panels show the EGFP expression in each sample for a typical experiment. (U) K26GFP infection was quantified as EGFP protein expression in the flow cytometry assay as the mean fluorescence intensity (MFI) of gated cells. Histograms represent the average of triplicates ± SD.
In other experiments, J cells were transfected with low amounts of plasmids encoding nectin1 (75 ng of DNA/24 well), plus or minus plasmids encoding αv + β6 or αv + β8 integrins (300 ng of DNA/24 well) or together by means of Lipofect 2000 (Life Technologies). The total amount of transfected plasmid DNA was made equal (675 ng/24 well) by the addition of Erb-2 plasmid DNA. […] Following infection, the unpenetrated virus was inactivated by means of an acid wash (40 mM citric acid, 10 mM KCl, 135 mM NaCl, pH 3),[87] and the cells were incubated for a further 16 h in the absence of the peptides or antibody. The extent of infection was assessed through EGFP expression.
Cytofluorimetric analyses were performed using an AccuriC6 flow cytometer (Becton Dickinson). A least 10 000 events were acquired for each sample. Microphotography of the inhibition experiment was conducted using a Nikon Eclipse Ni microscope.

[2] = system: recombinant R8102 HSV-1 strain; assay: Infection neutralization assay, 293T cells, R8102 HSV-1, β-galactosidase readout; assay type: cell-based; conditions: increasing concentrations, 1 h prior to infection and 90 min during attachment
Text: The binding of HSV-1 gH/gL to either αvβ6 or αvβ8 results in the dissociation of gL from the heterodimer, which, in turn, can favor HSV entry into cells.[27] […] R1.302, a nectin1-neutralizing mAb, was used as a positive control. In the first set of experiments, 293T cells, expressing both the αvβ6 and αvβ8 integrins, were alternatively exposed to increasing concentrations of the integrin-binding peptides and R1.302 before and during the infection by the recombinant R8102 HSV-1 strain. This virion carries, indeed, a lacZ reporter gene under the control of the α27 promoter, whose expression analysis allows for readily quantifying the infectivity.[59] […] Remarkably, these preliminary results were in agreement with the known interchangeable and additive roles played by αvβ6 and αvβ8 integrins upon HSV-1 infection.[26]
Figure 3 Inhibition of HSV-1 infection. 293T cells were exposed to increasing concentrations of the indicated peptides for 1 h prior to infection and during virus attachment for another 90 min. Infection was induced using the recombinant R8102 HSV-1 strain and measured after 8 h as β-galactosidase activity, using o-nitrophenyl-D-galactopyranoside (ONPG) as a substrate. The assays were run in triplicate. Bars show standard deviation (SD).
The experiments were performed using 293T cells in 96-well plates with extracellular virions of R8102 at an input multiplicity of infection of 5 PFU/cell. Cells were exposed to increasing concentrations of the peptides for 1 h at 37 °C, and the viral inoculum was added in the presence of peptides for 90 min at 37 °C. After the removal of the inoculum and rinsing with DMEM containing 1% FBS, the cells were incubated without peptides for 8 h. The same protocol was followed for R1.302 mAb that was used as a positive control. The infection was quantified as β-Gal activity using o-nitrophenyl-D-galactopyranoside (ONPG) as a substrate.[86]

IC50 (human αvβ8 integrin)	IC50 (human αvβ6 integrin)	SMILES	effect on HSV entry (in words) [1]	effect on HSV-1 infection (in words) [2]
3320 ± 122 nM	211 ± 26 nM	CN1CC(=O)N[C@@H](CC(=O)O)C(=O)N[C@@H](C2CCCCC2)C(=O)N[C@H](C(N)=O)CCC(=O)N[C@@H](CCCNC(=N)N)C1=O [compound 3, [Arg-(NMe)Gly-Asp-Chg-Glu]-CONH2]		
		CC(C)[C@H]1C(=O)N[C@@H](CCCNC(=N)N)C(=O)NCC(=O)N[C@@H](CC(=O)O)C(=O)N[C@H](Cc2ccccc2)C(=O)N1C [cilengitide, reference compound]	no effect	no alteration in the HSV entry process
2250 ± 89 nM	105 ± 8 nM	CN1C(=O)CC[C@@H](C(N)=O)NC(=O)[C@H](C2CCCCC2)NC(=O)[C@H](CC(=O)O)NC(=O)CNC(=O)[C@@H]1CCCNC(=N)N [compound 2, [(NMe)Arg-Gly-Asp-Chg-Glu]-CONH2]		

SMILES	IC50 (human αvβ8 integrin)	IC50 (human αvβ6 integrin)	effect on HSV entry (in words) [1]	effect on HSV-1 infection (in words) [2]
CN1C(=O)[C@H](CC(=O)O)NC(=O)CNC(=O)[C@H](CCCNC(=N)N)NC(=O)CC[C@@H](C(N)=O)NC(=O)[C@@H]1C1CCCCC1 [compound 5, [Arg-Gly-Asp-(NMe)Chg-Glu]-CONH2]	> 5000 nM	> 5000 nM		
